Results as given in patent US11254688B2 (Boehringer Ingelheim International GmbH, priority 2018, dated 2022).

Target: T1, hGOAT (Homo sapiens, UniProt Q96T53)
T1 construct: expressed in transfected cells; host or cells: HEK293 (Hek293 hGOAT/PPGhrl Clone #1B8)
T1 sequence (Q96T53 1-435): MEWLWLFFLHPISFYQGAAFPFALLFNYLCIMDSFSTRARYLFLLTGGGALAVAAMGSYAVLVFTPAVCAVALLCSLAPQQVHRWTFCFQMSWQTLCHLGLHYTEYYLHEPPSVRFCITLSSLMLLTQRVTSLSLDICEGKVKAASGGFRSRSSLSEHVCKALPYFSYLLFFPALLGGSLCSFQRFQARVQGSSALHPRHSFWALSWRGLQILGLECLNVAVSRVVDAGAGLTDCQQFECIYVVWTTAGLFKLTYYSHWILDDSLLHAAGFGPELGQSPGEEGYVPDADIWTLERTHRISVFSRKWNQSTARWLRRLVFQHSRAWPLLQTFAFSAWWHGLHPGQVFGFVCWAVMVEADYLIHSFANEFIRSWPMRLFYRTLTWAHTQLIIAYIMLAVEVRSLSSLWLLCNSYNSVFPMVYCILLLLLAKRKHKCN
Test: Determination of hGOAT activity in HEK293 cells after incubation with test compound (acyl-ghrelin ELISA)
Type: cell-based
Conditions: HEK293 cells stably transfected with preproghrelin and human GOAT; octanoate-BSA 100 μM; 5 hours incubation; acyl-ghrelin in medium by ELISA; 8 compound concentrations
Protocol: Determination of hGOAT Activity in HEK293 Cells after Incubation with Test Compound
HEK293 cells stably transfected with two expression vectors, one coding for preproghrelin cDNA and a second for the expression of human GOATcDNA are used as a cellular model. After feeding the cells with octanoic acid for 5 hours, acyl-ghrelin is measured in cell culture medium by an ELISA procedure.
Cellline: Hek293 hGOAT/PPGhrl Clone #1B8Sodium octanoate, Sigma, Cat.-No. C5038
BD Poly-D-Lysin 384-well Plates, black-clear polystyrene BD Bioscience Cat.-No. […] ELISA human acylated Ghrelin Kit purchased from Bertin Pharman (detailed composition of buffers e.g. wash-puffer, ELISA buffer not known)
Cells are plated with a density of 5000 cells/well in 384-well poly-D-lysin plates and incubated for 1 day at 37° C., 5% CO2 in DMEM medium, 10% FCS, 1×NEAA, Puromycin (0.5 μg/ml) and G418 (1 mg/ml). Then the medium is changed to a identical medium without FCS and containing Octanoate-BSA (final concentration 100 μM each) and compound in DMSO (final DMSO concentration 0,3%). After incubation for 5 hours acylghrelin in the medium is measured by ELISA.
The medium sample is diluted 1:25 in Elisa buffer, a 25 μl aliquot is transferred to a 384-well ELISA plate previously washed 4 times with 100 μL wash buffer, and 25 μl tracer-solution is added. After incubation overnight (˜20 h) at 4° C. temperature the plate is washed 4 times with 100 μl wash-buffer per well. Finally 50 μl Ellman's reagent is added to each well and the plate is incubated in the dark for 20 minutes. The absorbance is measured at 405 nm in an Envision multilabel reader and the amount of acylated ghrelin is calculated according to a acylated ghrelin standard curve provided in the same plate.
The analysis of the data is performed by calculation of the percentage of acyl-ghrelin produced in the presence of test compound compared to the amount of acyl-ghrelin produced in the vehicle control samples. An inhibitor of the GOAT enzyme will give values between 100% CTL (no inhibition) and 0% CTL (complete inhibition).
IC50 values are calculated with Assay Explorer or other suited software based on curve fitting of results of 8 different compound concentrations.

| SMILES | IC50 |
| --- | --- |
| Cc1nc2nonc2c(N)c1Cc1ccc(OC(F)(F)F)cc1 [Compound 1.2, 5-Methyl-6-{[4-(trifluoromethoxy)phenyl]methyl}-[1,2,5]oxadiazolo[3,4-b]pyridin-7-amine] | 0.387 nM |
| Cc1nc2nonc2c(N)c1Cc1ccc(C(F)(F)F)cc1 [Compound 1.3, 5-Methyl-6-{[4-(trifluoromethyl)phenyl]methyl}-[1,2,5]oxadiazolo[3,4-b]pyridin-7-amine] | 0.294 nM |
| Cc1nc2nonc2c(N)c1Cc1ccc(I)cc1 [Compound 1.4, 6-[(4-Iodophenyl)methyl]-5-methyl-[1,2,5]oxadiazolo[3,4-b]pyridin-7-amine] | 0.127 nM |
| COc1cc(OC(F)(F)F)ccc1Cc1c(C)nc2nonc2c1N [Compound 2.1, 6-{[2-Methoxy-4-(trifluoromethoxy)phenyl]methyl}-5-methyl-[1,2,5]oxadiazolo[3,4-b]pyridin-7-amine] | 0.092 nM |
| COc1cc(C#N)ccc1Cc1c(C)nc2nonc2c1N [Compound 2.4, 4-({7-Amino-5-methyl-[1,2,5]oxadiazolo[3,4-b]pyridin-6-yl}methyl)-3-methoxybenzonitrile] | 0.133 nM |
| COc1cc(Cc2c(C)nc3nonc3c2N)ccc1C#N [Compound 2.5, 4-({7-Amino-5-methyl-[1,2,5]oxadiazolo[3,4-b]pyridin-6-yl}methyl)-2-methoxybenzonitrile] | 0.402 nM |
| Cc1nc2nonc2c(N)c1Cc1cccc(Br)c1 [Compound 2.6, 6-[(3-Bromophenyl)methyl]-5-methyl-[1,2,5]oxadiazolo[3,4-b]pyridin-7-amine] | 1.4 nM |
| Cc1nc2nonc2c(N)c1Cc1ccc(C#N)cc1 [Compound 2.8, 4-({7-Amino-5-methyl-[1,2,5]oxadiazolo[3,4-b]pyridin-6-yl}methyl)benzonitrile] | 0.416 nM |
| COC(=O)c1ccc(Cc2c(C)nc3nonc3c2N)cc1 [Compound 2.10, Methyl 4-({7-amino-5-methyl-[1,2,5]oxadiazolo[3,4-b]pyridin-6-yl}methyl)benzoate] | 0.132 nM |
| COc1ncccc1Cc1c(C)nc2nonc2c1N [Compound 2.11, 6-[(2-Methoxypyridin-3-yl)methyl]-5-methyl-[1,2,5]oxadiazolo[3,4-b]pyridin-7-amine] | 1.07 nM |
| Cc1nc2nonc2c(N)c1Cc1ccc(S(C)(=O)=O)cc1 [Compound 2.12, 6-[(4-Methanesulfonylphenyl)methyl]-5-methyl-[1,2,5]oxadiazolo[3,4-b]pyridin-7-amine] | 0.49 nM |
| Cc1nc2nonc2c(N)c1Cc1ccc(CC#N)cc1 [Compound 2.15, 2-[4-({7-Amino-5-methyl-[1,2,5]oxadiazolo[3,4-b]pyridin-6-yl}methyl)phenyl]acetonitrile] | 0.887 nM |
| Cc1nc2nonc2c(N)c1C(=O)c1ccc(C(F)(F)F)cc1 [Compound 3.1, 5-Methyl-6-[4-(trifluoromethyl)benzoyl]-[1,2,5]oxadiazolo[3,4-b]pyridin-7-amine] | 5.83 nM |
| Cc1nc2nonc2c(N)c1Cc1ccc(F)c(F)c1 [Compound 4.0, 6-[(3,4-Difluorophenyl)methyl]-5-methyl-[1,2,5]oxadiazolo[3,4-b]pyridin-7-amine] | 0.494 nM |
| Cc1nc2nonc2c(N)c1Cc1ccc(Cl)c(Cl)c1 [Compound 4.1, 6-[(3,4-Dichlorophenyl)methyl]-5-methyl-[1,2,5]oxadiazolo[3,4-b]pyridin-7-amine] | 0.246 nM |
| COc1ccc(Cc2c(C)nc3nonc3c2N)cn1 [Compound 4.3, 6-[(6-Methoxypyridin-3-yl)methyl]-5-methyl-[1,2,5]oxadiazolo[3,4-b]pyridin-7-amine] | 1.58 nM |
| Cc1nc2nonc2c(N)c1Cc1ccc(C(F)(F)F)nc1 [Compound 4.5, 5-Methyl-6-{[6-(trifluoromethyl)pyridin-3-yl]methyl}-[1,2,5]oxadiazolo[3,4-b]pyridin-7-amine] | 1.59 nM |
| Cc1nc2nonc2c(N)c1Cc1ccc(C(C)(C)C)nc1 [Compound 4.7, 6-[(6-tert-butylpyridine-3-yl)methyl]-5-methyl-[1,2,5]oxadiazolo[3,4-b]pyridin-7-amine] | 0.124 nM |
| Cc1nc2nonc2c(N)c1Cc1cccn2cnnc12 [Compound 4.11, 5-Methyl-6-({[1,2,4]triazolo[4,3-a]pyridin-8-yl}methyl)-[1,2,5]oxadiazolo[3,4-b]pyridin-7-amine] | 3.42 nM |

More lines, in order of falling IC50, values ahead:

| IC50 | SMILES |
| --- | --- |
| 5.36 nM | Cc1nc2nonc2c(N)c1Cc1cccn2c(C(F)(F)F)nnc12 [Compound 4.10] |
| 4.06 nM | Cc1nc2nonc2c(N)c1Cc1ccc(F)nc1 [Compound 4.4, 6-[(6-Fluoropyridin-3-yl)methyl]-5-methyl-[1,2,5]oxadiazolo[3,4-b]pyridin-7-amine] |
| 4.01 nM | Cc1nc2nonc2c(N)c1Cc1cccn2c(C)nnc12 [Compound 4.9, 5-Methyl-6-({3-methyl-[1,2,4]triazolo[4,3-a]pyridin-8-yl}methyl)-[1,2,5]oxadiazolo[3,4-b]pyridin-7-amine] |
| 3.1 nM | Cc1nc2nonc2c(N)c1Cc1ccc(C#N)nc1 [Compound 4.6, 5-({7-Amino-5-methyl-[1,2,5]oxadiazolo[3,4-b]pyridin-6-yl}methyl)pyridine-2-carbonitrile] |
| 3.03 nM | Cc1nc2nonc2c(N)c1Cc1ccccc1 [Compound 2.16, 6-Benzyl-5-methyl-[1,2,5]oxadiazolo[3,4-b]pyridin-7-amine] |
| 2.26 nM | Cc1nc2nonc2c(N)c1Cc1cccc(F)c1 [Compound 4.2, 6-[(3-Fluorophenyl)methyl]-5-methyl-[1,2,5]oxadiazolo[3,4-b]pyridin-7-amine] |
| 2.01 nM | Cc1nc2nonc2c(N)c1Cc1ccc(F)c(C#N)c1 [Compound 2.9, 5-({7-Amino-5-methyl-[1,2,5]oxadiazolo[3,4-b]pyridin-6-yl}methyl)-2-fluorobenzonitrile] |
| 1.41 nM | Cc1nc2nonc2c(N)c1Cc1ccc(C2(C#N)CC2)nc1 [Compound 4.8, 1-[5-({7-Amino-5-methyl-[1,2,5]oxadiazolo[3,4-b]pyridin-6-yl}methyl)pyridin-2-yl]cyclopropane-1-carbonitrile] |
| 0.718 nM | Cc1nc2nonc2c(N)c1Cc1ccc(OCC2CC2(F)F)nc1 (stereo in doubt) [Compound 21.13, 6-[(6-{[(1R)-2,2-Difluorocyclopropyl]methoxy}pyridin-3-yl)methyl]-5-methyl-[1,2,5]oxadiazolo[3,4-b]pyridin-7-amine] |
| 0.66 nM | Cc1nc2nonc2c(N)c1Cc1cccc2c1cnn2C [Compound 2.13, 5-Methyl-6-[(1-methyl-1H-indazol-4-yl)methyl]-[1,2,5]oxadiazolo[3,4-b]pyridin-7-amine] |
| 0.353 nM | Cc1nc2nonc2c(N)c1Cc1ccc(F)cc1F [Compound 2.7, 6-[(2,4-Difluorophenyl)methyl]-5-methyl-[1,2,5]oxadiazolo[3,4-b]pyridin-7-amine] |
| 0.225 nM | Cc1nc2nonc2c(N)c1Cc1ccc(Br)cc1 [Compound 1.1, 6-[(4-Bromophenyl)methyl]-5-methyl-[1,2,5]oxadiazolo[3,4-b]pyridin-7-amine] |
| 0.096 nM | Cc1nc2nonc2c(N)c1Cc1ccc(OC(F)(F)F)c(Br)c1 [Compound 2.14, 6-{[3-Bromo-4-(trifluoromethoxy)phenyl]methyl}-5-methyl-[1,2,5]oxadiazolo[3,4-b]pyridin-7-amine] |
| 0.066 nM | COc1cc(C(F)(F)F)ccc1Cc1c(C)nc2nonc2c1N [Compound 2.2, 6-{[2-Methoxy-4-(trifluoromethyl)phenyl]methyl}-5-methyl-[1,2,5]oxadiazolo[3,4-b]pyridin-7-amine] |
| 0.06 nM | COc1cc(Br)ccc1Cc1c(C)nc2nonc2c1N [Compound 2.3, 6-[(4-Bromo-2-methoxyphenyl)methyl]-5-methyl-[1,2,5]oxadiazolo[3,4-b]pyridin-7-amine] |
